Data: ChEMBL document CHEMBL4251603, “Structure-activity studies on N-Substituted tranylcypromine derivatives lead to selective inhibitors of lysine specific demethylase 1 (LSD1) and potent inducers of leukemic cell differentiation” (Eur J Med Chem, 2018)
Blank lines part the entries; values can stand above or below the molecule they belong to. The source made the active and inactive calls. The rule behind the calls is not given here.

Assays:
[1] = target: T1, MAO-A (Homo sapiens, UniProt P21397); experiment: in vitro; settings: MAO-A enzyme (unknown origin), probe beetle luciferin derived luminogenic substrate
T1 sequence (P21397 whole entry): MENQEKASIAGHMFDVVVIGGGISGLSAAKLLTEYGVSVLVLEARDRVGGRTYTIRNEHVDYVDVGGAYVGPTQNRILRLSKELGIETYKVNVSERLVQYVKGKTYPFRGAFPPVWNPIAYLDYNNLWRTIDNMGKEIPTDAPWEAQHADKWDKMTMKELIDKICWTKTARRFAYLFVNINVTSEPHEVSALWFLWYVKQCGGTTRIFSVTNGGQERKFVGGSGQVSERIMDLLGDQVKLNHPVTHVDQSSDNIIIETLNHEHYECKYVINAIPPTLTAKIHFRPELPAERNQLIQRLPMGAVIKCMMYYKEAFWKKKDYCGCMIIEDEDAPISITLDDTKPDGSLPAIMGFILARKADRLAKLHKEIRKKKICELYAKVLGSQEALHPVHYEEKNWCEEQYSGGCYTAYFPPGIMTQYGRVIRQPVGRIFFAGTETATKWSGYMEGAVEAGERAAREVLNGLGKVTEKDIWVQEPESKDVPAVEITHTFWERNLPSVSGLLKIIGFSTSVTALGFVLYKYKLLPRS

[2] = target: T2, MAO-B (Homo sapiens, UniProt P27338); experiment: (§1) Inhibition of MAO-B (unknown origin) at 10 uM using beetle luciferin derived luminogenic substrate preincubated for 15 mins followed by substrate addition measured after 60 mins by MAO-Glo assay relative to control; settings: MAO-B enzyme (unknown origin), probe beetle luciferin derived luminogenic substrate
T2 sequence (P27338 whole entry): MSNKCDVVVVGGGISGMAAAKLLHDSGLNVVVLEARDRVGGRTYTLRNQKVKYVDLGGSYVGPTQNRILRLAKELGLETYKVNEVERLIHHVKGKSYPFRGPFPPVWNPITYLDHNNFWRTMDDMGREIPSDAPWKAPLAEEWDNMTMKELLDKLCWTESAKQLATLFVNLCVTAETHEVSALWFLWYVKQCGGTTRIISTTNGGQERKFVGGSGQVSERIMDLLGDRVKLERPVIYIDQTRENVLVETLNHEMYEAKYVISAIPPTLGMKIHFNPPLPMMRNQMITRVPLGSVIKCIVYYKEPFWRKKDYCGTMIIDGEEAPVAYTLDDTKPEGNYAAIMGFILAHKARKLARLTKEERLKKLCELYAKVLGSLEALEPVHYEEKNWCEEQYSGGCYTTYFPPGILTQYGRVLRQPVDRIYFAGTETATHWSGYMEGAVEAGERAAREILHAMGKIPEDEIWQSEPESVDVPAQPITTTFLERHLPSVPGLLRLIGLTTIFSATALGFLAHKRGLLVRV

[3] = target: T1, MAO-A; experiment: Inhibition of MAO-A (unknown origin) at 1 uM using beetle luciferin derived luminogenic substrate preincubated for 15 mins followed by substrate addition measured after 60 mins by MAO-Glo assay relative to control; settings: MAO-A enzyme (unknown origin), probe beetle luciferin derived luminogenic substrate
[4] = tested on: THP-1; experiment: Inhibition of colony formation in human THP1 cells at 0.5 uM after […] by light microscopic method relative to control; type: functional
[5] = target: Lysine-specific histone demethylase 1A (Mus musculus) (UniProt Q6ZQ88); experiment: Inhibition of LSD1 in mouse Hoxa9/Meis1 transformed progenitor cells assessed as induction of granulocytic differentiation at 50 to 100 nM up to 96 hrs by pappenheim staining based assay
[6] = target: T3, Amine oxidase [flavin-containing] B (Homo sapiens, UniProt P27338); experiment: Inhibition of MAO-B (unknown origin) using beetle luciferin derived luminogenic substrate preincubated for 15 mins followed by substrate addition measured after 60 mins by MAO-Glo assay
T3 sequence (P27338 whole entry): T2 sequence (P27338 whole entry)

[7] = target: Lysine-specific histone demethylase 1A (Mus musculus) (UniProt Q6ZQ88); experiment: Inhibition of LSD1 in mouse Hoxa9/Meis1 transformed progenitor cells assessed as reduction in c-Kit positive cells at 100 nM after 96 hrs by flow cytometry; type: cell-based
[8] = target: T4, Amine oxidase [flavin-containing] A (Homo sapiens, UniProt P21397)
T4 sequence (P21397 whole entry): T1 sequence (P21397 whole entry)

[9] = target: T5, Lysine-specific histone demethylase 1A (Homo sapiens, UniProt O60341)
[10] = target: T3, Amine oxidase [flavin-containing] B; experiment: as §1; settings: 1 h, 10 µM
[11] = target: T2, MAO-B; experiment: in vitro; settings: MAO-B enzyme (unknown origin), probe beetle luciferin derived luminogenic substrate
[12] = target: T5, Lysine-specific histone demethylase 1A; settings: 100 uM
[13] = target: T2, MAO-B; experiment: Inhibition of MAO-B (unknown origin) at 250 uM using beetle luciferin derived luminogenic substrate preincubated for 15 mins followed by substrate addition measured after 60 mins by MAO-Glo assay relative to control; settings: MAO-B enzyme (unknown origin), probe beetle luciferin derived luminogenic substrate
[14] = tested on: THP-1; experiment: Inhibition of colony formation in human THP1 cells at 0.5 to 50 uM after […] by light microscopic method; type: functional, cell-based
[15] = target: T5, Lysine-specific histone demethylase 1A; remark: listed apart in the source
[16] = target: T5, Lysine-specific histone demethylase 1A; settings: 10 uM

SMILES: Brc1ccccc1CN[C@H]1C[C@@H]1c1ccccc1 (relative stereo)
inhibition at 1 h, 10 µM [1]: 47%
inhibition at 1 h, 10 µM [2]: 24%

SMILES: Cc1ccc(CN[C@H]2C[C@@H]2c2ccccc2)cc1Cl (relative stereo)
inhibition at 1 h, 1 µM [3]: 69%

SMILES: O=[N+]([O-])c1cccc(CN[C@H]2C[C@@H]2c2ccccc2)c1 (relative stereo)
inhibition at 0.5 µM [4]: 80%
inhibition [5]: Active
IC50 [6]: 1.4 µM
inhibition [7]: Active
IC50 [8]: 0.488 µM

inhibition at 1 h, 10 µM [1]: 32%
IC50 [9]: Not Active
inhibition (INH) [10]: Not Active
SMILES: COc1ccccc1CN[C@H]1[C@@H](C)[C@@H]1c1ccccc1 (relative stereo)

SMILES: COc1ccccc1CN[C@H]1C[C@@H]1c1ccccc1 (relative stereo)
inhibition at 1 h, 10 µM [2]: 36%

inhibition (INH) [10]: Not Active
SMILES: c1ccc([C@H]2C[C@@H]2NCc2cccnc2)cc1 (relative stereo)

inhibition (INH) [10]: Not Active
IC50 [8]: 0.161 µM
SMILES: c1ccc(-c2cccc(CN[C@H]3C[C@@H]3c3ccccc3)c2)cc1 (relative stereo)

SMILES: Brc1cccc(CN[C@H]2C[C@@H]2c2ccccc2)c1 (relative stereo)
inhibition at 1 h, 1 µM [3]: 38%

SMILES: CN(C)c1ccc(CN[C@H]2C[C@@H]2c2ccccc2)cc1 (relative stereo)
inhibition at 1 h, 1 µM [3]: 30%

inhibition at 1 h, 1 µM [11]: 52%
inhibition at 1 h, 1 µM [3]: 93%
SMILES: c1ccc(COc2ccc(CN[C@H]3C[C@@H]3c3ccccc3)cc2)cc1 (relative stereo)

SMILES: c1ccc(CN[C@H]2C[C@@H]2c2ccccc2)cc1 (relative stereo)
inhibition at 1 h, 10 µM [2]: 33%
IC50 [8]: 5.7 µM

inhibition at 1 h, 1 µM [11]: 79%
inhibition at 1 h, 1 µM [3]: 94%
SMILES: O=[N+]([O-])c1ccc(N[C@H]2C[C@@H]2c2ccccc2)s1 (relative stereo)

SMILES: C[C@H]1[C@@H](N)[C@H]1c1ccccc1.Cl (relative stereo)
inhibition [12]: inactive
inhibition (INH) [10]: Not Active

inhibition at 1 h, 1 µM [11]: 82%
inhibition at 1 h, 1 µM [3]: 93%
SMILES: c1ccc(-c2ccc(CN[C@H]3C[C@@H]3c3ccccc3)cc2)cc1 (relative stereo)

SMILES: Fc1cccc(CN[C@H]2C[C@@H]2c2ccccc2)c1 (relative stereo)
inhibition at 1 h, 10 µM [1]: 69%
inhibition at 1 h, 10 µM [2]: 20%

inhibition at 1 h, 250 µM [13]: 50%
IC50 [8]: 24.7 µM
SMILES: NC(=O)c1ccc(CN[C@H]2C[C@@H]2c2ccccc2)cc1 (relative stereo)

SMILES: COc1cccc(CN[C@H]2C[C@@H]2c2ccccc2)c1 (relative stereo)
inhibition at 1 h, 10 µM [1]: 79%
inhibition (INH) [10]: Not Active

inhibition at 1 h, 10 µM [1]: 54%
inhibition at 1 h, 10 µM [2]: 14%
SMILES: Cn1c(CN[C@H]2C[C@@H]2c2ccccc2)cc2ccccc21 (relative stereo)

IC50 [9]: Not Active
inhibition at 1 h, 10 µM [2]: 14%
IC50 [8]: 41.4 µM
SMILES: COc1ncccc1CN[C@H]1[C@@H](C)[C@@H]1c1ccccc1 (relative stereo)

inhibition at 1 h, 1 µM [11]: 32%
inhibition at 1 h, 1 µM [3]: 100%
SMILES: Brc1ccc(COc2cccc(CN[C@H]3C[C@@H]3c3ccccc3)c2)cc1 (relative stereo)

inhibition at 1 h, 10 µM [1]: 48%
inhibition at 1 h, 10 µM [2]: 17%
SMILES: CC(=O)Nc1ccc(CN[C@H]2C[C@@H]2c2ccccc2)cc1 (relative stereo)

SMILES: Fc1ccc(CN[C@H]2C[C@@H]2c2ccccc2)cc1 (relative stereo)
inhibition at 1 h, 1 µM [3]: 27%

inhibition [12]: inactive
IC50 [6]: 56.2 µM
IC50 [8]: 0.78 µM
SMILES: C[C@@H]1[C@H](NCc2ccc(Cl)cc2Cl)[C@H]1c1ccccc1 (relative stereo)

SMILES: Clc1cc(Cl)cc(CN[C@H]2C[C@@H]2c2ccccc2)c1 (relative stereo)
inhibition at 1 h, 1 µM [11]: 17%
inhibition at 1 h, 1 µM [3]: 30%

SMILES: Ic1ccccc1CN[C@H]1C[C@@H]1c1ccccc1 (relative stereo)
inhibition at 1 h, 1 µM [11]: 16%
inhibition at 1 h, 1 µM [3]: 12%

SMILES: Clc1ccc(CN[C@H]2C[C@@H]2c2ccccc2)c(Cl)c1 (relative stereo)
inhibition at 1 h, 10 µM [1]: 73%
inhibition at 1 h, 10 µM [2]: 11%

SMILES: COc1ccc(CN[C@H]2C[C@@H]2c2ccccc2)cc1OC (relative stereo)
inhibition at 1 h, 10 µM [1]: 69%
inhibition (INH) [10]: Not Active

SMILES: O=[N+]([O-])c1cc(CN[C@H]2C[C@@H]2c2ccccc2)ccc1Cl (relative stereo)
inhibition at 1 h, 10 µM [1]: 100%
inhibition at 1 h, 10 µM [2]: 13%

SMILES: Brc1ccc(CN[C@H]2C[C@@H]2c2ccccc2)cc1 (relative stereo)
inhibition at 1 h, 10 µM [1]: 43%
inhibition at 1 h, 10 µM [2]: 27%

SMILES: Fc1ccccc1CN[C@H]1C[C@@H]1c1ccccc1 (relative stereo)
inhibition at 1 h, 10 µM [1]: 20%
inhibition at 1 h, 10 µM [2]: 16%

SMILES: Fc1ccc(CN[C@H]2C[C@@H]2c2ccccc2)cc1F (relative stereo)
inhibition at 1 h, 1 µM [3]: 43%

inhibition (INH) [10]: Not Active
SMILES: COc1ncccc1CN[C@H]1C[C@@H]1c1ccccc1

SMILES: O=[N+]([O-])c1ccccc1CN[C@H]1C[C@@H]1c1ccccc1 (relative stereo)
inhibition at 1 h, 1 µM [11]: 15%
inhibition at 1 h, 1 µM [3]: 18%

inhibition at 1 h, 1 µM [3]: 27%
SMILES: O=[N+]([O-])c1ccc(N[C@H]2C[C@@H]2c2ccccc2)o1 (relative stereo)

Tm [15]: 45.6 °C
inhibition [16]: inactive
IC50 [6]: 2.2 µM
IC50 [8]: 0.237 µM
SMILES: C[C@@H]1[C@H](NCc2cccc([N+](=O)[O-])c2)[C@H]1c1ccccc1 (relative stereo)
inhibition [14]: inactive

SMILES: COc1ccc(CN[C@H]2C[C@@H]2c2ccccc2)cc1 (relative stereo)
inhibition at 1 h, 1 µM [3]: 30%

SMILES: CCc1ccc(CN[C@H]2C[C@@H]2c2ccccc2)cc1 (relative stereo)
inhibition at 1 h, 1 µM [11]: 12%
inhibition at 1 h, 1 µM [3]: 33%

IC50 [6]: 95.7 µM
IC50 [8]: 27.9 µM
SMILES: NC(=O)c1cccc(CN[C@H]2C[C@@H]2c2ccccc2)c1 (relative stereo)

SMILES: C[C@@H]1[C@@H](N)[C@H]1c1ccccc1.Cl (relative stereo)
inhibition [12]: inactive
inhibition (INH) [10]: Not Active

SMILES: Clc1ccc(CN[C@H]2C[C@@H]2c2ccccc2)cc1 (relative stereo)
inhibition at 0.5 µM [4]: 80%
inhibition [5]: Active
IC50 [6]: 14.1 µM
inhibition [7]: Active
IC50 [8]: 0.206 µM

SMILES: CC(C)(C)c1ccc(CN[C@H]2C[C@@H]2c2ccccc2)cc1 (relative stereo)
inhibition at 1 h, 1 µM [11]: 27%
inhibition at 1 h, 1 µM [3]: 22%

SMILES: C[C@@H]1[C@H](N)[C@H]1c1ccccc1.Cl (relative stereo)
inhibition [12]: inactive
inhibition (INH) [10]: Not Active

SMILES: Clc1ccccc1CN[C@H]1C[C@@H]1c1ccccc1 (relative stereo)
inhibition at 1 h, 10 µM [1]: 62%
inhibition at 1 h, 10 µM [2]: 21%

inhibition at 1 h, 1 µM [11]: 44%
inhibition at 1 h, 1 µM [3]: 100%
SMILES: Brc1ccc(COc2ccc(CN[C@H]3C[C@@H]3c3ccccc3)cc2)cc1 (relative stereo)

inhibition at 1 h, 1 µM [11]: 23%
inhibition at 1 h, 1 µM [3]: 60%
SMILES: c1ccc(COc2cccc(CN[C@H]3C[C@@H]3c3ccccc3)c2)cc1 (relative stereo)

Tm [15]: 47.9 °C
inhibition [16]: inactive
IC50 [6]: 10.5 µM
IC50 [8]: 0.31 µM
SMILES: C[C@@H]1[C@H](NCc2ccc(Cl)cc2)[C@H]1c1ccccc1 (relative stereo)
inhibition [14]: inactive

SMILES: Fc1cc(Br)ccc1CN[C@H]1C[C@@H]1c1ccccc1 (relative stereo)
inhibition at 1 h, 1 µM [3]: 27%
